Measured values taken from PubChem BioAssay AID192 (DTP/NCI, 2004).
Several values for one entry are separate records, joined by “and”; a condition that tells them apart may be missing. Equal entries are not always repeated. Inconclusive results and toxic doses are left out. How the source made its calls: active means survival T/C of 150% or more; inactive means T/C below 125% in these data. Peptide text beside a SMILES is read from it.

Test system: BDF1 mice, B16 melanoma ip, median survival T/C
Experiment: NCI In Vivo Anticancer Drug Screen. Data for tumor model B16 Melanoma (intraperitoneal) in B6D2F1 (BDF1) mice
Details: endpoint: median survival time, higher = longer survival
How it was run: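 Survival or tumor size is measured after treatment of tumor-bearing mice and normalised to the vehicle-treated control group.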

[1] = dose: 100.0 mg/kg/injection, schedule: Q01DX009 (ip), vehicle: saline
[2] = dose: 100.0 mg/kg/injection, schedule: Q04DX003 (ip), vehicle: saline
[3] = dose: 200.0 mg/kg/injection, schedule: Q01DX009 (ip), vehicle: saline
[4] = dose: 200.0 mg/kg/injection, schedule: Q04DX003 (ip), vehicle: saline
[5] = dose: 100.0 mg/kg/injection, schedule: Q01DX009 (ip), vehicle: Klucel (hydroxypropylcellulose) (HPC)
[6] = dose: 200.0 mg/kg/injection, schedule: Q01DX009 (ip), vehicle: Klucel (hydroxypropylcellulose) (HPC)
[7] = dose: 25.0 mg/kg/injection, schedule: Q01DX009 (ip), vehicle: water
[8] = dose: 25.0 mg/kg/injection, schedule: Q01DX009 (ip), vehicle: saline with Tween-80
[9] = dose: 100.0 mg/kg/injection, schedule: Q01DX009 (ip), vehicle: saline with Tween-80

Measured: T/C

Cc1nccc(=O)[nH]1
inactive: [1] 90 % of control | [2] 117 % of control | [3] 107 % of control | [4] 100 % of control

CC1=CCC(C(C)C)C=C1 (configuration not stated)
inactive: dose: 25.0 mg/kg/injection, schedule: Q01DX009 (ip), vehicle: Klucel (hydroxypropylcellulose) (HPC) 92 % of control | dose: 50.0 mg/kg/injection, schedule: Q01DX009 (ip), vehicle: Klucel (hydroxypropylcellulose) (HPC) 94 % of control | [5] 94 % of control | [6] 89 % of control

CC(C)C(NC(=O)C(NC(=O)C(CCCN=C(N)N)NC(=O)C(N)CCCCN)C(C)C)C(N)=O (configuration not stated) (H-KRVV-NH2; configuration not given here)
inactive: [7] 97 % of control | dose: 50.0 mg/kg/injection, schedule: Q01DX009 (ip), vehicle: water 96 % of control | dose: 100.0 mg/kg/injection, schedule: Q01DX009 (ip), vehicle: water 96 % of control | dose: 200.0 mg/kg/injection, schedule: Q01DX009 (ip), vehicle: water 99 % of control

c1ccc([C@H]2CN3CCSC3=N2)cc1
inactive: dose: 0.15 mg/kg/injection, schedule: Q01DX009 (ip), vehicle: saline 97 % of control | dose: 0.31 mg/kg/injection, schedule: Q01DX009 (ip), vehicle: saline 89 % of control and 102 % of control | dose: 0.63 mg/kg/injection, schedule: Q01DX009 (ip), vehicle: saline 102 % of control | dose: 1.25 mg/kg/injection, schedule: Q01DX009 (ip), vehicle: saline 102 % of control | dose: 2.5 mg/kg/injection, schedule: Q01DX009 (ip), vehicle: saline 103 % of control | dose: 5.0 mg/kg/injection, schedule: Q01DX009 (ip), vehicle: saline 89 % of control | dose: 10.0 mg/kg/injection, schedule: Q01DX009 (ip), vehicle: saline 89 % of control | dose: 20.0 mg/kg/injection, schedule: Q01DX009 (ip), vehicle: saline 107 % of control | dose: 40.0 mg/kg/injection, schedule: Q01DX009 (ip), vehicle: saline 86 % of control

CC(=O)c1ccccc1OCC(O)CN1CCN(c2cccc(C(F)(F)F)c2)CC1 (configuration not stated)
inactive: dose: 100.0 mg/kg/injection, schedule: Q04DX003 (ip), vehicle: saline with Tween-80 102 % of control | dose: 200.0 mg/kg/injection, schedule: Q04DX003 (ip), vehicle: saline with Tween-80 93 % of control | dose: 400.0 mg/kg/injection, schedule: Q04DX003 (ip), vehicle: saline with Tween-80 91 % of control

CC(C)n1c(=S)[nH]c2ccccc2c1=O
inactive: dose: 16.5 mg/kg/injection, schedule: Q01DX009 (ip), vehicle: saline with Tween-80 102 % of control | [8] 94 % of control | dose: 37.5 mg/kg/injection, schedule: Q01DX009 (ip), vehicle: saline with Tween-80 100 % of control | [5] 95 % of control | [9] 87 % of control | [1] 117 % of control | [6] 90 % of control

Clc1ccc(/C=C2\c3cc(Cl)ccc3-c3c(Cl)cc(Cl)cc32)cc1
inactive: dose: 6.25 mg/kg/injection, schedule: Q01DX009 (ip), vehicle: saline with Tween-80 90 % of control

COc1ccc(/C=C/c2cnc3ccccc3n2)cc1OC
inactive: dose: 75.0 mg/kg/injection, schedule: Q01DX009 (ip), vehicle: Klucel (hydroxypropylcellulose) (HPC) 100 % of control | dose: 150.0 mg/kg/injection, schedule: Q01DX009 (ip), vehicle: Klucel (hydroxypropylcellulose) (HPC) 100 % of control | dose: 300.0 mg/kg/injection, schedule: Q01DX009 (ip), vehicle: Klucel (hydroxypropylcellulose) (HPC) 92 % of control

NCC(=O)NC(CO)C(=O)O (configuration not stated)
inactive: [1] 90 % of control | [2] 100 % of control | [3] 106 % of control | [4] 102 % of control | dose: 400.0 mg/kg/injection, schedule: Q01DX009 (ip), vehicle: saline 95 % of control | dose: 400.0 mg/kg/injection, schedule: Q04DX003 (ip), vehicle: saline 95 % of control

NC(CNC(=O)CBr)C(=O)O (configuration not stated)
inactive: dose: 6.25 mg/kg/injection, schedule: Q01DX009 (ip), vehicle: water 109 % of control | dose: 12.5 mg/kg/injection, schedule: Q01DX009 (ip), vehicle: water 104 % of control | [7] 122 % of control

O=Cc1c(O)c2ccccc2[nH]c1=O
inactive: [8] 106 % of control and 120 % of control | dose: 50.0 mg/kg/injection, schedule: Q01DX009 (ip), vehicle: saline with Tween-80 102 % of control and 107 % of control | [9] 122 % of control
